In publication PMC11796317, “Fragment Discovery by X‐Ray Crystallographic Screening Targeting the CTP Binding Site of Pseudomonas Aeruginosa IspD” (Angewandte Chemie (International Ed. in English), 2025):

T1: PaIspD (Pseudomonas aeruginosa, UniProt P57707)
T1 construct: His6 (N, cleaved yes); made in house; host or cells: Escherichia coli BL21 (DE3), pET28
T1 sequence (P57707 1-234): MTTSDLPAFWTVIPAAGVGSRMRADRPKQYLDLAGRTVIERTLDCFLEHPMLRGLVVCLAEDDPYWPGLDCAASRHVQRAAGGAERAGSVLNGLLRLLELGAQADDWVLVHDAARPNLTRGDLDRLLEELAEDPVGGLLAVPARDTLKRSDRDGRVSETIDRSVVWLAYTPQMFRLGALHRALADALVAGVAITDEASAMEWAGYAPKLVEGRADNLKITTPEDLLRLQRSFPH


How the values were obtained:
PaIspD [1] = biological target: T1, PaIspD; assay: Determination of enzyme kinetics (Michaelis constants of substrates, LC-MS); assay type: biochemical; details: substrate of PaIspD; 50 nM PaIspD, 37 °C, 40 minutes
Description: (§1) Determination of enzyme kinetics
(§2) Table S1. Michaelis constants for MEP and CTP of PaIspD.
(§3) Substrate Km (mM) Vmax (AU/min-1)
(§4) Determination of enzyme kinetics. The assay was conducted as published before. To determine the Km values for CTP and MEP with PaIspD, substrate concentrations (0.016–2 mM) were prepared in a 96-well plate. Each well contained 100 μL of reaction mix with Buffer A (100 mM Tris-HCl pH 7.6, 1 mM DTT, 1 mM MgCl2) and 50 nM PaIspD. Serial dilutions of CTP or MEP were performed, and reactions were initiated by adding Buffer B (100 mM Tris-HCl pH 7.6, 1 mM DTT, 1 mM MEP or CTP). Plates were incubated at 37 °C for 40 minutes, denatured at 95 °C for 5 minutes, and centrifuged at 4000 rpm at 4 °C. Supernatants (10 μL) were mixed with an 190 μL ice-cold 3:1:1 ACN, isopropanol, water mixture containing 100 nM 4-methyl-1-oxo-1-(p-tolylamino)pentane-2-sulfonic acid, adenylyl-imidodiphosphate and adenosine-5′- [(α,β)-methyleno]triphosphate as internal standard. After centrifugation at 4000 rpm at 4 °C for 5 min, a 50 μL aliquot was transferred to an LC-MS plate for analysis. Peak areas were used to calculate Michaelis–Menten kinetics using GraphPad Prism v9. Measurements were done in duplicates and repeated in two independent experiments.
Figure S1: Kinetic parameters of PaIspD substrates (MEP, left and CTP, right). Each data point reflects the mean ± SD obtained from two-independent […]

PaIspD [2] = biological target: T1, PaIspD; assay: Fluorescence quenching (PaIspD); assay type: binding
Description: Fluorescence quenching (PaIspD)
Quenching is expressed as (I0 – I) / I0 with I0 the intensity (at 332 nm) of fluorescence in absence of compound and I the intensity of fluorescence upon addition of compound. Inset, fluorescence emission spectra in the presence of increasing concentrations of compound. The concentration of PaIspD was kept at 2 µM during the assay, the compounds were tested in concentration ranges given below. The excitation wavelength was set at 286 nm, emission spectra were recorded between 300 nm and 380 nm. The data were fitted using Qtiplot software (qtiplot.com). A least square fit to a simple bimolecular equilibrium was used to estimate the Kd values. Each measurement was reproduced two times. The measurements were carried out in the following buffer: 50 mM Tris-Cl pH = 8, 50 mM NaCl, 1mM MgCl2.
Table S1. Concentration ranges used to determine Kd during the Fluorescence quenching assay.

PaIspD [3] = biological target: T1, PaIspD; assay: Microscale thermophoresis (MST) with dyed PaIspD; assay type: binding
Description: The microscale thermophoresis (MST) (Serial no. 201709-BR-N024, Monolith NT.115 Micro Scale Thermophoresis, NanoTemper Technologies GmbH.) was performed using dyed PaIspD, labeled according to the standard protocol from the manufacturer NanoTemper Technologies GmbH Protein Labeling Kit Red-NHS, 2nd Generation. A 2 mM ligand solution containing 10% DMSO was prepared (Solution I). A 200 µl solution of 10% DMSO containing buffer solution was prepared (Solution II). The buffer used was HEPES (50 mM), MgCl2 (5 mM) and Tween (0.05%) at pH 7.6 for all compounds. To PCR tubes 2-16, 10 µl of solution II was added. To tube 1, 20 µl of solution I was added. 10 µl from tube 1 was add to tube 2 and mixed. This was continued until tube 16. To each tube, 10 µL of the protein dye mixture was added and mixed. The mixture was allowed to incubate at room temperature for 5 minutes. Non-hydrophobic capillary tubes were used for measurement. Each sample was measured and analyzed in MO Control version 1.6.

PaIspD [4] = biological target: T1, PaIspD; assay: 1H-STD NMR and competition STD NMR with CTP; assay type: binding
Source text: To further validate the occurrence of interactions taking place between the fragment and PaIspD, we referred to ^1H‐STD NMR spectroscopy, a commonly used technique for this purpose.[10, 11] We conducted this experiment in a HEPES buffer in D2O with a 100‐fold excess of 2 compared to PaIspD. In the corresponding difference spectrum, we identified all proton signals previously observed in the ^1H NMR spectrum of 2 (see Figure S2 and S3 in the Supporting Information). […] We further noted the magnitude of amplification of the signals as the efficiency of saturation transfer scales with distance, enabling us to gain an idea about the proximity of each proton to the protein surface.[12] Among all protons, those in position iii (Figure 4) clearly received a surplus in saturation transfer relative to the other ones, whereas the protons positioned on the pyridyl ring (i, Figure 4) and the protons in position ii (Figure 4) received both less amplification with the latter receiving the least amount (Figure 4). […]
The 1H-STD-NMR experiment was recorded at 25 °C with 512 scans on a Bruker Avance Neo 500 MHz spectrometer with prodigy cryoprobe system. […]

[5] = substrate: C[C@](O)(CO)[C@H](O)COP(=O)(O)O; assay: Determination of enzyme kinetics (Michaelis constants of substrates, LC-MS); assay type: biochemical, Pseudomonas aeruginosa; details: other: substrate of PaIspD, 50 nM PaIspD, 37 °C, 40 minutes, pH 7.6
Description: as §1, §2, §3, §4
Figure S1: Kinetic parameters of PaIspD substrates (MEP, left and CTP, right). […]

[6] = -log KD, supplement sheet, CORRECTED VALUES
[7] = -log KD, supplement sheet, PUBLISHED VALUES
[8] = kd (M), supplement sheet, CORRECTED VALUES
[9] = kd (µM), supplement sheet, CORRECTED VALUES, MST Kd
[10] = supplement sheet, CORRECTED VALUES
[11] = supplement sheet, PUBLISHED VALUES
[12] = MST Kd, n=2, mean±SD, HEPES 50 mM, MgCl2 5 mM, Tween 0.05%, pH 7.6

Molecule | Km (PaIspD [1]) [µM] | Vmax (PaIspD [1]) [AU/min-1] | Kd (PaIspD [2]) [µM] | Kd (PaIspD [3]; [6]) [M] | Kd (PaIspD [3]; [7]) [M] | Kd (PaIspD [3]; [8]) [M] | Kd (PaIspD [3]; [9]) [M] | LE (PaIspD [3]; [10]) | LLE (PaIspD [3]; [11]) | Competition STD NMR with CTP (PaIspD [4]; 1 mM 2, 10 mM CTP, 10 µM PaIspD) | 1H-STD NMR interaction with PaIspD (PaIspD [4]; HEPES buffer in D2O, 100-fold excess of 2 compared to PaIspD) | Kd (PaIspD [3]; [12]) [M] | Km [5] [µM]
Nc1ccn([C@@H]2O[C@H](COP(=O)(O)OP(=O)(O)OP(=O)(O)O)[C@@H](O)[C@H]2O)c(=O)n1 [CTP] | 200 ± 100 | 0.30 ± 0.01 | – | – | – | – | – | – | – | – | – | – | –
CN1Cc2cccnc2C1=O [Compound 2] | – | – | 977 ± 59 | 0.000939 | 0.000939 | 0.000939 | 0.000939 | 0.377 | -1.358 | STD signals of 2 disappeared | came into close proximity of the protein | – | –
CN1CCC(N2Cc3cccnc3C2=O)CC1 [Compound 3] | – | – | 879 ± 64 | 0.000186 | 0.000186 | 0.000186 | 0.000186 | 0.3006 | -0.7773 | – | – | 0.000186 ± 7e-06 | –
O=C1c2ncccc2CN1Cc1ccccc1 [Compound 4] | – | – | 391 ± 35 | 0.000133 | 0.000133 | 0.000133 | 0.000133 | 0.3124 | -0.9699 | – | – | 0.000133 ± 1.2e-05 | –
O=C1c2ncccc2CN1CCN1CCOCC1 [Compound 5] | – | – | – | 0.000491 | 0.000491 | 0.000491 | 0.000491 | 0.2518 | -0.7374 | – | – | 0.000491 ± 2e-06 | –
O=C1c2ncccc2CN1CCc1c[nH]c2ccccc12 [Compound 6] | – | – | 332 ± 22 | 0.000208 | 0.000208 | 0.000208 | 0.000208 | 0.2402 | -0.7939 | – | – | 0.000208 ± 7e-06 | –
COC(=O)N(C)C1c2cccnc2C(=O)N1C (centres unmarked) [Compound 7] | – | – | – | 0.000454 | 0.000454 | 0.000454 | 0.000454 | 0.2694 | -0.728 | – | – | 0.000454 ± 2.7e-05 | –
CCC(=O)N(C)C1c2cccnc2C(=O)N1C (centres unmarked) [Compound 8] | – | – | 248 ± 15 | – | – | – | – | – | – | – | – | – | –
CCC(CC)C(=O)N(C)C1c2cccnc2C(=O)N1C (centres unmarked) [Compound 9] | – | – | – | 0.000536 | 0.000536 | 0.000536 | 0.000536 | 0.2241 | -0.9347 | – | – | 0.000536 ± 4.7e-05 | –
CN(C(=O)c1ccncc1)C1c2cccnc2C(=O)N1C (centres unmarked) [Compound 10] | – | – | 310 ± 28 | 0.000209 | 0.000209 | 0.000209 | 0.000209 | 0.2401 | -0.6357 | – | – | 0.000209 ± 4e-06 | –
CN(C(=O)c1ccon1)C1c2cccnc2C(=O)N1C (centres unmarked) [Compound 11] | – | – | 301 ± 16 | 0.000502 | 0.000502 | 0.000502 | 0.000502 | 0.226 | -0.6167 | – | – | 0.000502 ± 5.6e-05 | –
CN1C(=O)c2ncccc2C1N(C)C(=O)N1CCOCC1 (centres unmarked) [Compound 12] | – | – | 371 ± 42 | 0.000239 | 0.000239 | 0.000239 | 0.000239 | 0.2363 | -0.5431 | – | – | 0.000239 ± 6e-06 | –
C[C@](O)(CO)[C@H](O)COP(=O)(O)O [MEP, 2‐C‐methylerythritol‐D‐erythritol‐4‐phosphate] | – | 0.30 ± 0.0 | – | – | – | – | – | – | – | – | – | – | –
PaIspD (Pseudomonas aeruginosa PAO1) (protein, His6 (N, cleaved yes); made in house; host or cells: Escherichia coli BL21 (DE3), pET28) MTTSDLPAFWTVIPAAGVGSRMRADRPKQYLDLAGRTVIERTLDCFLEHPMLRGLVVCLAEDDPYWPGLDCAASRHVQRAAGGAERAGSVLNGLLRLLELGAQADDWVLVHDAARPNLTRGDLDRLLEELAEDPVGGLLAVPARDTLKRSDRDGRVSETIDRSVVWLAYTPQMFRLGALHRALADALVAGVAITDEASAMEWAGYAPKLVEGRADNLKITTPEDLLRLQRSFPH | – | – | – | – | – | – | – | – | – | – | – | – | 210 ± 100
